Laboratory results from PMC6095626, “Screening of the Pathogen Box for inhibitors with dual efficacy against Giardia lamblia and Cryptosporidium parvum” (PLoS Neglected Tropical Diseases, 2018).
Values joined by “and” are separate entries in the source; they are usually repeats but may differ in a detail not shown here. Equal entries are not always repeated. Where two headings read alike, the source gives them in different places.

How the values were obtained:
[1] = test system: G. lamblia trophozoites (luciferase expressing, WBC6); test: microbe, parasite or virus in culture; type: cell-based, Giardia lamblia; details: for Giardia (16 uM) Mean % inhibition: initial Pathogen Box screen, single concentration 16 µM, inhibition compared to DMSO wells; for EC50: luciferase expressing G. lamblia trophozoites, 24 hours, D-luciferin bioluminescence read-out, read-out: G. lamblia EC50
In short: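 Luciferase-expressing WBC6 trophozoites plated at 250,000 cells/mL, compounds added 1:1, incubated anaerobically (GasPak bags) at 37 °C for 24 h; viability read by bioluminescence, with duplicate plates counted on a MOXI Z cell counter. Metronidazole control serially diluted 1:2 from 40 μM.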

[2] = test system: HepG2 cells; test: Cytotoxicity against HepG2 cells, AlamarBlue viability assay, 48 hours; type: cell-based, human; details: read-out: HepG2 CC50 (this study)
Excerpt: Mammalian cell cytotoxicity assay data performed on HepG2 (human hepatocellular carcinoma) cells and described as CC20 or CC50 values are provided in supporting documentation that accompanied the Pathogen Box for approximately three quarters of the 400 compounds. However, no details of the assay conditions or parameters were provided. In this study, selected compounds were further tested for cytotoxicity against HepG2 cells as previously described. Briefly, cells were exposed to two-fold serial dilutions of compounds for 48 hours and cytotoxicity was assessed using the AlamarBlue® viability assay (Thermo Fisher Scientific, Waltham, MA). Each dilution was assayed in quadruplicate and concentrations causing 50% growth inhibition (CC50) were calculated by non-linear regression using GraphPad Prism 7 software (GraphPad Software, San Diego, CA).

[3] = test system: C. parvum (UGA1 Nluc expressing strain in HCT-8 cells); test: microbe, parasite or virus in culture; type: cell-based, Cryptosporidium parvum; details: for Crypto (10 uM) Mean % inhibition: initial Pathogen Box screen, single concentration 10 µM, inhibition compared to DMSO wells
In short: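 HCT-8 monolayers grown 48 h to 90–100% confluence, treated with compound at 10 μM or serial dilutions, then infected with bleach-treated UGA1 Nluc C. parvum oocysts.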

[4] = test system: HepG2 cells; details: ref Pathogen_Box_Activity_Biological_Data_ Structure & Smiles (https://www.pathogenbox.org/about-pathogen-box/composition); read-out: HepG2 CC50 (literature values); cited from earlier work

Structure (SMILES)	Giardia (16 uM) Mean % inhibition [1]	EC50 [1] [nM]	CC50 [2] [nM]	EC50 ([3]; Nluc C. parvum in HCT-8 cells, 48 hours, read-out: C. parvum EC50)	Crypto (10 uM) Mean % inhibition [3]	CC50 [4] [nM]
COc1cc(-c2cc(-c3ccc(S(C)(=O)=O)cc3)cnc2N)ccc1O [MMV010576]	94%	1900 ± 280	> 40000	3000 nM and 2990 nM	87%	> 10000
O=C(Nc1ccc(N2CCNCC2)cc1)c1ccn2ncc(-c3cccc(Cl)c3)c2n1 [MMV022478]	98%	2410 ± 120	> 40000	–	X* (Mean or standard deviation are negative but not significantly different from the control to be a growth promoter)	> 10000
Cc1ccc2nc(C)c(-c3ccn(Cc4ccccc4)n3)n2c1 [MMV688939]	X* (Mean or standard deviation are negative but not significantly different from the control to be a growth promoter)	–	–	–	73%	–
COc1cc(CN2CCC3(C=Cc4ccccc43)CC2)cc2c1OCO2 [MMV688941]	62%	–	–	–	56%	–
CC(C)(C)C(O)C(Oc1ccc(-c2ccccc2)cc1)n1cncn1 (stereo not drawn) [MMV688942]	40%	–	–	–	X* (Mean or standard deviation are negative but not significantly different from the control to be a growth promoter)	–
CC1COC(Cn2cncn2)(c2ccc(Oc3ccc(Cl)cc3)cc2Cl)O1 (stereo not drawn) [MMV688943]	81%	–	–	–	46%	–
Cc1cc(NC(=O)c2ccc(Oc3ccc(Cl)cc3O)o2)no1 [MMV688955]	26%	–	–	–	50%	–
CCc1cc(=O)n(C)c(SC(C)C(=O)Nc2ccc(F)cc2)n1 (stereo not drawn) [MMV688980]	17%	–	–	–	X* (Mean or standard deviation are negative but not significantly different from the control to be a growth promoter)	–
CCCCCCCCCCCCCCCCOP(=O)([O-])OCC[N+](C)(C)C [MMV688990]	X* (Mean or standard deviation are negative but not significantly different from the control to be a growth promoter)	–	–	–	X* (Mean or standard deviation are negative but not significantly different from the control to be a growth promoter)	–
CNC1C(OC2C(OC3C(O)C(O)C(N=C(N)N)C(O)C3N=C(N)N)OC(C)C2(O)C=O)OC(CO)C(O)C1O (stereo not drawn) [MMV688994]	X* (Mean or standard deviation are negative but not significantly different from the control to be a growth promoter)	–	–	–	47%	–
C[C@@H]1[C@H](O)[C@@H](C)/C=C/C=C/C=C/C=C/C=C/C=C/C=C/[C@H](O[C@@H]2O[C@H](C)[C@@H](O)[C@H](N)[C@@H]2O)C[C@@H]2O[C@](O)(C[C@@H](O)C[C@@H](O)[C@H](O)CC[C@@H](O)C[C@@H](O)CC(=O)O[C@H]1C)C[C@H](O)[C@H]2C(=O)O [MMV689000]	41%	–	–	–	X* (Mean or standard deviation are negative but not significantly different from the control to be a growth promoter)	–
Cc1ccc(S(=O)(=O)Nc2ccc(CN3CCN(C(=O)c4cccc(C#N)c4)CC3)cc2)cc1 [MMV689028]	56%	–	–	–	58%	–
COc1ccc(S(=O)(=O)Nc2ccc(CN3CCN(C(=O)c4cccc(C#N)c4)CC3)cc2)cc1 [MMV689029]	54%	–	–	–	54%	–
Clc1ccc(CN2CCN(C3=NCCN3)CC2)cc1Cl [MMV689060]	X* (Mean or standard deviation are negative but not significantly different from the control to be a growth promoter)	–	–	–	50%	–
CC(=O)Nc1ccc(-c2noc(CC3CCCN(Cc4cccc(F)c4C)C3)n2)cc1 (stereo not drawn) [MMV689061]	17%	–	–	–	59%	–
FC(F)(F)c1ccc(N(c2cccnc2)C2CCN(c3ccc(C(F)(F)F)cn3)CC2)cc1 [MMV689243]	11%	–	–	–	X* (Mean or standard deviation are negative but not significantly different from the control to be a growth promoter)	–
O=C([C@@H](c1ccc(Cl)cc1)c1cccnc1)N1CCN(c2ccc(C(F)(F)F)cc2)CC1 [MMV689244]	33%	–	–	–	X* (Mean or standard deviation are negative but not significantly different from the control to be a growth promoter)	–

Structure (SMILES)	Giardia (16 uM) Mean % inhibition [1]	EC50 [1] [nM]	CC50 [2] [nM]	EC50 ([3]; Nluc C. parvum in HCT-8 cells, 48 hours, read-out: C. parvum EC50)	Crypto (10 uM) Mean % inhibition [3]	CC50 [4] [nM]
Nc1ncnc2c1ncn2C[C@@H](O)[C@@H](O)C(=O)O [MMV689255]	33%	–	–	–	46%	–
CC(c1cc(Cl)cc(Cl)c1)N(C)c1ncc2c(N)nc(N)nc2n1 (stereo not drawn) [MMV689437]	46%	–	–	–	X* (Mean or standard deviation are negative but not significantly different from the control to be a growth promoter)	–
CNc1cc(C)nc(C2CN(C(=O)c3n[nH]c4ccccc34)CCO2)c1 (stereo not drawn) [MMV689709]	19%	–	–	–	45%	–
COc1nc2ccc(Br)cc2cc1[C@@H](c1ccccc1)[C@@](O)(CCN(C)C)c1cccc2ccccc12 [MMV689758]	62%	–	–	–	68%	–
COc1ccc(C2=NN(C3CCCCCC3)C(=O)[C@@H]3CC=CC[C@H]23)cc1OCCCCOc1ccc(-c2nn[nH]n2)cc1 [MMV690027]	24%	–	–	–	44%	–
COc1ccc(C2=NN(C3CCCCCC3)C(=O)C2(C)C)cc1OCCCCOc1ccc(-c2nn[nH]n2)cc1 [MMV690028]	70%	–	–	–	61%	–
COc1ccc(Oc2ccc([C@@H](C)N(C)c3ncc4c(N)nc(N)nc4n3)cc2)cc1 [MMV690102]	62%	–	–	–	77%	–
C[C@H](c1ccc2c(c1)CCCC2)N(C)c1ncc2c(N)nc(N)nc2n1 [MMV690103]	49%	–	–	–	78%	–
CCc1ccc(C(NCc2nc(N)nc(N(C)C)n2)C(C)C)cc1 (stereo not drawn) [MMV1019989]	4.4%	–	–	–	X* (Mean or standard deviation are negative but not significantly different from the control to be a growth promoter)	–
O=C(Nc1nc(-c2ccccn2)cs1)C1CC1c1ccccc1F (stereo not drawn) [MMV1028806]	X* (Mean or standard deviation are negative but not significantly different from the control to be a growth promoter)	–	–	–	91%	–
CNC(=O)CNc1nc(-c2ccccn2)nc2scc(-c3ccccc3)c12 [MMV1029203]	4%	–	–	–	21%	–
CCCn1c(NC(=O)c2ccc3ccccc3n2)nc2ccccc21 [MMV1030799]	13%	–	–	–	81%	–
CCNC(=O)C(C)Nc1nc(-c2cccnc2)nc2sc(C)c(C)c12 (stereo not drawn) [MMV1037162]	11%	–	–	–	20%	–
Cc1ccc(-c2nc(CN(Cc3ccccn3)C(C)C)cs2)o1 [MMV1088520]	52%	–	–	–	27%	–
COc1cccn2c(C(=O)N3CCCCC3)c(C(F)(F)F)nc12 [MMV1110498]	61%	–	–	–	60%	–
Cc1cc(OCC(=O)Nc2ccc(C(C)C)cc2)n(C)c(=O)c1C#N [MMV1198433]	10%	–	–	–	52%	–
CCOC(=O)c1noc(N)c1-c1ccccc1 [MMV1236379]	X* (Mean or standard deviation are negative but not significantly different from the control to be a growth promoter)	–	–	–	X* (Mean or standard deviation are negative but not significantly different from the control to be a growth promoter)	–
